Laboratory results: the supplement of paper PMC10307832

Tests used:
Assay in all cases: relative viability (nuclei count vs DMSO), 5 days (fraction); higher = more cells survive
RU-SKI 43 + Vorinostat = compound: CC[C@@H](C)CNCC(=O)N1CCC2=C([C@@H]1COC3=CC=CC(=C3)C)C=CS2 [RU-SKI 43] + O=C(CCCCCCC(=O)Nc1ccccc1)NO [Vorinostat] (partner 1 µM)
In short: (§1)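 Lung cancer cell lines, seeded in 1536-well plates, were treated the following day by pin tool with a single drug or with five library-drug doses (not always all listed) in √10 steps on top of a fixed anchor-drug dose. Cells were fixed and nuclei stained in one step after 5 days, and nuclei were counted. Relative viability is the nuclei count for treated wells divided by that for vehicle wells, reported as medians of duplicate plates.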

MK-8033 + Bortezomib = compound: Cn1cc(-c2cnc3ccc4ccc(CS(=O)(=O)NCc5ccccn5)cc4c(=O)c3c2)cn1 [MK-8033] + CC(C)C[C@H](NC(=O)[C@H](Cc1ccccc1)NC(=O)c1cnccn1)B(O)O [Bortezomib] (partner 0.002 µM)
In short: as §1

MK-8033 + Foretinib = compound: Cn1cc(-c2cnc3ccc4ccc(CS(=O)(=O)NCc5ccccn5)cc4c(=O)c3c2)cn1 [MK-8033] + COc1cc2c(Oc3ccc(NC(=O)C4(C(=O)Nc5ccc(F)cc5)CC4)cc3F)ccnc2cc1OCCCN1CCOCC1 [Foretinib] (partner 0.25 µM)
In short: as §1

MK-8033 + Pemetrexed = compound: Cn1cc(-c2cnc3ccc4ccc(CS(=O)(=O)NCc5ccccn5)cc4c(=O)c3c2)cn1 [MK-8033] + Nc1nc2[nH]cc(CCc3ccc(C(=O)N[C@@H](CCC(=O)O)C(=O)O)cc3)c2c(=O)[nH]1 [Pemetrexed] (partner 0.2 µM)
In short: as §1

UMC-11
relative viability (RU-SKI 43 + Vorinostat; first compound 0.1 µM): 0.386 | relative viability (RU-SKI 43 + Vorinostat; first compound 0.3162 µM): 0.328 | relative viability (RU-SKI 43 + Vorinostat; first compound 1 µM): 0.473 | relative viability (RU-SKI 43 + Vorinostat; first compound 3.162 µM): 0.407 | relative viability (RU-SKI 43 + Vorinostat; first compound 10 µM): 0.352 | relative viability (MK-8033 + Bortezomib; first compound 0.02 µM): 0.673 | relative viability (MK-8033 + Bortezomib; first compound 0.06325 µM): 0.664 | relative viability (MK-8033 + Bortezomib; first compound 0.2 µM): 0.831 | relative viability (MK-8033 + Bortezomib; first compound 0.6325 µM): 0.665 | relative viability (MK-8033 + Bortezomib; first compound 2 µM): 0.664 | relative viability (MK-8033 + Foretinib; first compound 0.02 µM): 1.08 | relative viability (MK-8033 + Foretinib; first compound 0.06325 µM): 1.04 | relative viability (MK-8033 + Foretinib; first compound 0.2 µM): 0.989 | relative viability (MK-8033 + Foretinib; first compound 2 µM): 1.08 | relative viability (MK-8033 + Pemetrexed; first compound 0.02 µM): 0.801 | relative viability (MK-8033 + Pemetrexed; first compound 0.06325 µM): 0.75 | relative viability (MK-8033 + Pemetrexed; first compound 0.2 µM): 0.66 | relative viability (MK-8033 + Pemetrexed; first compound 0.6325 µM): 0.815 | relative viability (MK-8033 + Pemetrexed; first compound 2 µM): 0.683
